# Assay results as given in ChEMBL document CHEMBL6103604, “Novel Bicyclic Amines as CDK2 Inhibitors for Treating Metastatic Breast Cancer or Metastatic Lung Cancer” (ACS Med Chem Lett, 2025).
# Target: Cyclin-dependent kinase 2/cyclin E1 (Homo sapiens, UniProt P24941)
# Experiment: Inhibition of N-terminal GST-tagged wild-type full-length human CDK2 (1 to 298 residues)/FLAG-tagged human Cyclin E1 (1 to 410 residues) extracted from baculovirus infected Sf21 cells using ULight-labeled eIF4E-binding protein-1 as substrate incubated for 60 mins in the presence of ATP by HTRF assay
row,Structure (SMILES),IC50
1,C[C@@H](Oc1c(-c2cn[nH]c2)ncn2nc(NC3CCOCC3)nc12)C(F)(F)F,≤ 10 nM
2,C[C@@H](Oc1c(-c2cn[nH]c2)ccn2nc(NC3CCOCC3)nc12)C(F)F,≤ 10 nM
3,CC(C)Oc1c(-c2cn[nH]c2)ncn2nc(NC3CCOCC3)nc12,≤ 10 nM
4,C[C@@H](Oc1c(-c2cn[nH]c2)ccn2nc(NC3CCOCC3)nc12)C(F)(F)F,≤ 10 nM

# Other lines, results leading:
row,IC50,Structure (SMILES)
1,≤ 10 nM,CC(C)Oc1c(-c2cn[nH]c2)ccn2nc(NC3CCOCC3)nc12
2,≤ 10 nM,C[C@@H](Oc1c(-c2cn[nH]c2)ncn2nc(NC3CCOCC3)nc12)C(F)F
